EC50 data for 35 molecules are collected here from patent publication US10676431B2, “Phenylpyrrolidinone formyl peptide 2 receptor agonists” (BRISTOL-MYERS SQUIBB COMPANY, priority 2018, dated 2020).

For test [1], the target named is human FPR2 (Homo sapiens (Human), UniProt P25090). The test is described as follows: FPR2 cyclic adenosine monophosphate (cAMP) assay. It is filed as cell-based. As to conditions: CHO cells overexpressing human FPR2; forskolin 5 μM, IBMX 200 μM; inhibition of cAMP production, HTRF; read-out: hFPR2 cAMP2 EC50. As to the method: (§1) FPR2 and FPR1 Cyclic Adenosine Monophosphate (cAMP) Assays. A mixture of forskolin (5 μM final for FPR2 or 10 μM final for FPR1) and IBMX (200 μM final) were added to 384-well Proxiplates (Perkin-Elmer) pre-dotted with test compounds in DMSO (1% final) at final concentrations in the range of 0.020 nM to 100 μM. Chinese Hamster Ovary cells (CHO) overexpressing human FPR1 or human FPR2 receptors were cultured in F-12 (Ham's) medium supplemented with 10% qualified FBS, 250 μg/ml zeocin and 300 μg/ml hygromycin (Life Technologies). Reactions were initiated by adding 2,000 human FPR2 cells per well or 4,000 human FPR1 cells per well in Dulbecco's PBS (with calcium and magnesium) (Life Technologies) supplemented with 0.1% BSA (Perkin-Elmer). The reaction mixtures were incubated for 30 min at room temperature. The level of intracellular cAMP was determined using the HTRF HiRange cAMP assay reagent kit (Cisbio) according to manufacturer's instruction. Solutions of cryptate conjugated anti-cAMP and d2 fluorophore-labelled cAMP were made in a supplied lysis buffer separately. Upon completion of the reaction, the cells were lysed with equal volume of the d2-cAMP solution and anti-cAMP solution. After a 1-h room temperature incubation, time-resolved fluorescence intensity was measured using the Envision (Perkin-Elmer) at 400 nm excitation and dual emission at 590 nm and 665 nm. A calibration curve was constructed with an external cAMP standard at concentrations ranging from 1 μM to 0.1 pM by plotting the fluorescent intensity ratio from 665 nm emission to the intensity from the 590 nm emission against cAMP concentrations. The potency and activity of a compound to inhibit cAMP production was then determined by fitting to a 4-parametric logistic equation from a plot of cAMP level versus compound concentrations.
In general terms: cAMP levels reflect the balance of adenylyl cyclase and phosphodiesterase activity.

The target in test [2] is human FPR1 (Homo sapiens (Human), UniProt P21462). The test is described as follows: FPR1 cyclic adenosine monophosphate (cAMP) assay. It is filed as cell-based. As to conditions: CHO cells overexpressing human FPR1; forskolin 10 μM, IBMX 200 μM; inhibition of cAMP production, HTRF; read-out: hFPR1 cAMP EC50. The protocol: as §1, with “After a 1-h room temperature incubation, time-resolved fluorescence intensity was measured using the Envision (Perkin-Elmer) at 400 nm excitation and dual emission at 590 nm and 665 nm. A calibration curve was constructed with an external cAMP standard at concentrations ranging from 1 μM to 0.1 pM by plotting the fluorescent intensity ratio from 665 nm emission to the intensity from the 590 nm emission against cAMP concentrations.” left out

Structures are written as SMILES. Bounds are passed on as bounds.

human FPR2, sequence (P25090 whole entry): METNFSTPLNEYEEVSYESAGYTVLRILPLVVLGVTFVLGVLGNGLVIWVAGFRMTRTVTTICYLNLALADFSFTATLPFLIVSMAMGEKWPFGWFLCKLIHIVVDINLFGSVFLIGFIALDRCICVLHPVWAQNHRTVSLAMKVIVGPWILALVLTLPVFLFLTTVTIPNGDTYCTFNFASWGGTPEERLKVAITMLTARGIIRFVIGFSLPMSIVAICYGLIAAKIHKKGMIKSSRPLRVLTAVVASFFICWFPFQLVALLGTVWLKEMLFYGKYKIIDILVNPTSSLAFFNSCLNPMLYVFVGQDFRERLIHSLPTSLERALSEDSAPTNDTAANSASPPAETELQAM
human FPR1, sequence (P21462 whole entry): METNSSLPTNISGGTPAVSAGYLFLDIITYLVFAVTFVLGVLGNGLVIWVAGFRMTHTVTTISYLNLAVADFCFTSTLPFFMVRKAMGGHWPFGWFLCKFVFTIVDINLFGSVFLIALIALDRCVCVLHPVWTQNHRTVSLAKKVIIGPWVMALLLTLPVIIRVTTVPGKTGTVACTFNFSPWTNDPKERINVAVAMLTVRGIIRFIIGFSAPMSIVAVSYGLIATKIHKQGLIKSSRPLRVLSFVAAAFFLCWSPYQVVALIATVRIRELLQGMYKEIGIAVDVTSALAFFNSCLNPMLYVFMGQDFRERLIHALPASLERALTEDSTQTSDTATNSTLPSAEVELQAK

As for `CC1C[C@@H](NC(=O)Nc2ccc(Cl)cc2F)C(=O)N1c1ccc(-c2cccnc2P(C)(C)=O)c(F)c1F` (stereo partly drawn) [Example 121], the EC50 (commonly the concentration at which the effect is half-maximal) in test [1] is 0.0003 µM; in test [2] it was 0.005 µM.
On to `CP(C)(=O)c1ccccc1-c1ccc(N2CC[C@@H](NC(=O)Nc3ccc(C(F)(F)F)cc3F)C2=O)c(C(F)(F)F)c1F` [Example 92], for which the EC50 in test [1] stood at 0.0083 µM; in test [2], 0.22 µM.
As to `CS(=O)(=O)Nc1ccccc1-c1ccc(N2CC[C@@H](NC(=O)Nc3ccc(C(F)(F)F)nc3)C2=O)cc1` [Example 20], the concentration giving a half-maximal response (EC50) in test [1] is 0.024 µM; in test [2] it was over 10 µM.
The matching figures for `CS(=O)(=O)c1ccccc1-c1ccc(N2C(=O)[C@H](NC(=O)Nc3ccc(C(F)(F)F)cc3F)C[C@H]2CO)c(F)c1F` [Example 39]: 0.00058 µM and 0.057 µM.
Taken in the same sequence, the figures for `CC1(C)CN(c2ccc(-c3cccnc3P(C)(C)=O)c(F)c2F)C(=O)[C@@H]1NC(=O)Nc1ccc(C(F)(F)F)cc1F` [Example 110] were 0.0011 µM and 0.64 µM.
For `CCOP(C)(=O)c1ccccc1-c1ccc(N2CC[C@@H](NC(=O)Nc3ccc(C(F)(F)F)cc3F)C2=O)c(F)c1F` (stereo partly drawn) [Example 105], in test [1], the EC50 was 0.0069 µM.
With `CC(C)c1cc(-c2ccccc2P(C)(C)=O)ccc1N1CC[C@@H](NC(=O)Nc2ccc(Cl)cc2F)C1=O` [Example 45], the EC50 in test [1] amounted to 0.003 µM; in test [2], 0.14 µM.
Take `CP(C)(=O)c1ccccc1-c1ccc(N2CC(CO)[C@@H](NC(=O)Nc3ccc(Cl)cc3F)C2=O)c(F)c1F` (stereo partly drawn) [Example 127]: the EC50 in test [1] was 0.018 µM; in test [2], 0.92 µM.
The matching figures for `CP(C)(=O)c1ccccc1-c1ccc(N2CC[C@@H](NC(=O)Nc3ccc(C(F)(F)F)cc3F)C2=O)c(Cl)c1Cl` [Example 80]: 0.0014 µM and 0.086 µM.
Consider `CS(=O)(=O)Nc1ccccc1-c1ccc(N2CC[C@@H](NC(=O)Nc3ccc(C(F)(F)F)cc3F)C2=O)c(F)c1F` [Example 33], for which the EC50 in test [1] stood at 0.0011 µM; in test [2] it was 0.47 µM.
Regarding `O=C(Nc1ccc(Cl)cc1)N[C@@H]1CCN(c2ccc(-c3ccccc3CO)c(F)c2F)C1=O` [Example 3], the EC50 in test [1] came to 0.0011 µM; in test [2], 0.22 µM.
Turning to `CP(C)(=O)c1ccccc1-c1ccc(N2CC(CO)[C@@H](NC(=O)Nc3ccc(Cl)cc3F)C2=O)c(F)c1F` (stereo partly drawn) [Example 125], the figures for the EC50 in test [1] and in test [2] were 0.00099 µM and 0.18 µM, respectively.
The matching figures for `CS(=O)(=O)Nc1ccccc1-c1ccc(N2CC[C@@H](NC(=O)Nc3ccc(Cl)cc3F)C2=O)c(F)c1F` [Example 5]: 0.00068 µM and 0.23 µM.
The matching figures for `CS(=N)(=O)c1ccccc1-c1ccc(N2CC[C@@H](NC(=O)Nc3ccc(C(F)(F)F)cc3F)C2=O)c(F)c1F` (stereo partly drawn) [Example 66]: 0.0049 µM and 0.58 µM.
Taken in the same sequence, the figures for `CC(N)c1cccc(-c2ccc(N3CC[C@@H](NC(=O)Nc4ccc(Cl)cc4)C3=O)c(F)c2F)c1` (stereo partly drawn) [Example 12] were 0.0025 µM and 0.45 µM.
With `CP(C)(=O)c1ncccc1-c1ccc(N2CC[C@@H](NC(=O)Nc3ccc(C(F)(F)F)cc3F)C2=O)c(F)c1F` [Example 73, (R)-1-(1-(4-(2-(dimethylphosphoryl)pyridin-3-yl)-2,3-difluorophenyl)-2-oxopyrrolidin-3-yl)-3-(2-fluoro-4-(trifluoromethyl)phenyl)urea], the EC50 in test [1] was found to be 0.00089 µM; in test [2] it was 0.17 µM.
Taken in the same sequence, the figures for `CCP(=O)(CC)c1ccccc1-c1ccc(N2CC[C@@H](NC(=O)Nc3ncc(Cl)cc3F)C2=O)c(F)c1F` [Example 67] were 0.00248 µM and 1.3 µM.
Regarding `CS(=O)(=O)c1ccccc1-c1ccc(N2C(=O)[C@H](NC(=O)Nc3ccc(Cl)cc3F)C[C@H]2CO)c(F)c1F` [Example 42], the figures for the EC50 in test [1] and in test [2] were 0.001 µM and 0.22 µM, respectively.
Taken in the same sequence, the figures for `CC(C)c1cc(-c2ccccc2P(C)(C)=O)ccc1N1CC[C@@H](NC(=O)Nc2ncc(Cl)cc2F)C1=O` [Example 61] were 0.023 µM and 0.37 µM.
Take `CS(=O)(=O)c1ccccc1-c1ccc(N2CC[C@@H](NC(=O)Nc3ccc(Cl)cc3F)C2=O)c(F)c1F` [Example 7]: the EC50 in test [1] is 0.0021 µM; in test [2], 0.14 µM.
Taken in the same sequence, the figures for `CS(=O)(=O)Nc1ncccc1-c1ccc(N2CC[C@@H](NC(=O)Nc3ccc(Cl)cc3F)C2=O)c(F)c1F` [Example 23] were 0.0082 µM and 0.7 µM.
The matching figures for `CP(C)(=O)c1ccccc1-c1ccc(N2CC[C@@H](NC(=O)Nc3cnc(Cl)cn3)C2=O)c(F)c1F` [Example 63]: 0.00567 µM and 4.4 µM.
For `CP(C)(=O)c1ccccc1-c1ccc(N2CC[C@@H](NC(=O)Nc3ccc(Cl)cc3F)C2=O)c(F)c1OC(F)(F)F` [Example 87], the EC50 in test [1] was 0.0016 µM; in test [2], 0.0012 µM.
The matching figures for `N#Cc1ccccc1-c1ccc(N2CC[C@@H](NC(=O)Nc3ccc(Cl)cc3)C2=O)c(F)c1F` [Example 8]: 0.002 µM and 0.061 µM.
The matching figures for `CP(C)(=O)c1ccccc1-c1ccc(N2CC[C@@H](NC(=O)Nc3cccc(Cl)c3)C2=O)c(F)c1F` [Example 134]: 0.0025 µM and 1500 µM.
In the case of `CC1C[C@@H](NC(=O)Nc2ccc(Cl)cc2F)C(=O)N1c1ccc(-c2ccccc2P(C)(C)=O)c(F)c1F` (stereo in doubt) [Example 109, 1-(4-Chloro-2-fluorophenyl)-3-(1-(2′-(dimethylphosphoryl)-2,3-difluoro-[1,1′-biphenyl]-4-yl)-5-methyl-2-oxopyrrolidin-3-yl)urea], the EC50 was found to be 0.00044 µM in test [1] and 0.39 µM in test [2].
Taken in the same sequence, the figures for `COc1c(-c2ccccc2NS(C)(=O)=O)ccc(N2CC[C@@H](NC(=O)Nc3ccc(Cl)cc3F)C2=O)c1F` [Example 34] were 0.0041 µM and 0.026 µM.
Take `CP(C)(=O)c1ccccc1-c1ccc(N2CC[C@@H](NC(=O)Nc3ccc(Cl)cc3F)C2=O)c2c1OC(F)(F)O2` [Example 106]: the values for the EC50 in test [1] and in test [2] were 0.0031 µM and 0.0035 µM, respectively.
Regarding `CS(=N)(=O)c1ccccc1-c1ccc(N2CC[C@@H](NC(=O)Nc3ccc(Cl)cc3F)C2=O)c(F)c1F` (stereo partly drawn) [Example 59], the results for the EC50 in test [1] and in test [2] were 0.0017 µM and 0.14 µM, respectively.
As for `CP(C)(=O)c1ncccc1-c1ccc(N2CC[C@@H](NC(=O)Nc3ccc(Cl)cc3F)C2=O)c(F)c1F` [Example 74], the EC50 was determined as 0.0022 µM in test [1] and 0.14 µM in test [2].
Consider `CP(C)(=O)c1c(F)cccc1-c1ccc(N2CC[C@@H](NC(=O)Nc3ccc(C(F)(F)F)cc3F)C2=O)c(F)c1Cl` [Example 86], for which the EC50 stood at 0.00085 µM in test [1] and 0.021 µM in test [2].
With `O=C(Nc1ccc(Cl)cc1F)N[C@@H]1C[C@@H](CO)N(c2ccc(-c3ccccc3F)c(F)c2F)C1=O` [Example 82], the EC50 in test [1] amounted to 0.0025 µM; in test [2], 0.78 µM.
On to `COP(=O)(OC)c1ccccc1-c1ccc(N2CC[C@@H](NC(=O)Nc3ccc(C(F)(F)F)cc3F)C2=O)c(F)c1F` [Example 108], for which, in test [1], the EC50 was 0.0014 µM.
Same read-out and setting: the figure for `CCOP(C)(=O)c1ccccc1-c1ccc(N2CC[C@@H](NC(=O)Nc3ccc(C(F)(F)F)cc3F)C2=O)c(F)c1F` (stereo partly drawn) [Example 104] is 0.0052 µM; for `CCOP(C)(=O)c1ccccc1-c1ccc(N2CC[C@@H](NC(=O)Nc3ccc(Cl)cc3F)C2=O)c(F)c1F` (stereo partly drawn) [Example 101] it is 0.00066 µM.
